Test results from PubChem BioAssay (NCI).
Values joined by “and” are separate entries in the source; they are usually repeats but may differ in a detail not shown here. Equal values may be shown once.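 Tested at 5 concentrations; 48 h exposure; 96-well plates; endpoints linearly interpolated, else capped at highest concentration. At the GI50, growth is halved. TGI is the concentration that stops growth completely.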

Experiments:
Assay in all cases: DTP human tumour cell line panel, 48 h
[1] = tested on: COLO 205 colon
[2] = tested on: HT29 colon
[3] = tested on: LOX IMVI melanoma
[4] = tested on: MDA-MB-435
[5] = tested on: NCI-H226 lung
[6] = tested on: NCI-H460 lung
[7] = tested on: OVCAR-5 ovarian
[8] = tested on: RXF 393 renal
[9] = tested on: SK-MEL-28 melanoma
[10] = tested on: SNB-75 CNS

## Cn1cc(C2=C(c3cn(CCCN)c4ccccc34)C(=O)NC2=O)c2ccccc21
[1]
  GI50: 3270 nM
  TGI: 7.06 µM
[2]
  GI50: 4740 nM
  TGI: 18.4 µM
[3]
  GI50: 3400 nM
  TGI: 7.49 µM
[4]
  GI50: 2660 nM
  TGI: 6.62 µM
[5]
  GI50: 5.87 µM
  TGI: > 18 µM
[6]
  GI50: 5250 nM
  TGI: 11.1 µM
[7]
  GI50: 9.52 µM
  TGI: > 25 µM
[8]
  GI50: 3400 nM
  TGI: 7.42 µM
[9]
  GI50: 4700 nM
  TGI: 9.3 µM
[10]
  GI50: 998 nM
  TGI: 5.35 µM

## CS(=O)(=O)c1cccc(Nc2ncc3cc(-c4ccccc4Cl)ccc3n2)c1
[1]
  GI50: 1190 nM
  TGI: 3.13 µM
[2]
  GI50: 1010 nM
  TGI: 19.1 µM
[3]
  GI50: 1060 nM
  TGI: 4.54 µM
[4]
  GI50: 657 nM
  TGI: 1.9 µM
[5]
  GI50: 2.55 µM
  TGI: 21.5 µM
[6]
  GI50: 1220 nM
  TGI: 25.8 µM
[7]
  GI50: 1.88 µM
  TGI: > 33.3 µM
[8]
  GI50: 1050 nM
  TGI: 6.24 µM
[9]
  GI50: 1770 nM
  TGI: > 33.3 µM
[10]
  GI50: 507 nM
  TGI: 2.3 µM

## COC1C=COC2(C)Oc3c(C)c(O)c4c(O)c(c(C5SCCS5)c(O)c4c3C2=O)NC(=O)/C(C)=C\C=CC(C)C(O)C(C)C(O)C(C)C(OC(C)=O)C1C (centres undefined)
[1]
  TGI: 6.79 µM
[2]
  TGI: 13 µM
[3]
  TGI: 4.57 µM
[4]
  TGI: 16.1 µM
[5]
  TGI: 21.8 µM
[6]
  TGI: 18 µM
[7]
  TGI: 27.8 µM
[8]
  TGI: 24.1 µM
[9]
  TGI: 20.8 µM
[10]
  TGI: 20.5 µM

## O=C(c1ccc([N+](=O)[O-])cc1)C(Br)C(Br)c1ccnc2ccccc12 (centres undefined)
[1]
  TGI: 28.9 µM
[2]
  TGI: 11.7 µM
[3]
  TGI: 4.71 µM
[4]
  TGI: 7.85 µM
[5]
  TGI: 33.6 µM
[6]
  TGI: 13.8 µM
[7]
  TGI: 33 µM
[8]
  TGI: 21.2 µM
[9]
  TGI: 30.8 µM
[10]
  TGI: 13.1 µM

## O=C(NCCOCCOCCOCCNC(=O)c1cc2c(o1)C(=O)c1ccccc1C2=O)NC12CC3CC(CC(C3)C1)C2
[1]
  GI50: 1960 nM
  TGI: 3.97 µM
[2]
  GI50: 2600 nM
  TGI: 6.79 µM
[3]
  GI50: 843 nM
  TGI: 3.16 µM
[4]
  GI50: 388 nM
  TGI: 1.36 µM
[5]
  GI50: 1.56 µM
  TGI: 3.66 µM
[6]
  GI50: 1190 nM
  TGI: 2.93 µM
[7]
  GI50: 1.83 µM
  TGI: 3.28 µM
[8]
  GI50: 1580 nM
  TGI: 3.05 µM
[9]
  GI50: 1940 nM
  TGI: 3.75 µM
[10]
  GI50: 2250 nM
  TGI: 4.06 µM

## CC(=O)/C(Br)=C/c1ccc(Br)o1
[1]
  GI50: 7550 nM
  TGI: 20.9 µM
[2]
  GI50: 4210 nM
  TGI: 14.6 µM
[3]
  GI50: 4350 nM
  TGI: 14.9 µM
[4]
  GI50: 8510 nM
  TGI: 23.2 µM
[5]
  GI50: 12.7 µM
  TGI: 26.2 µM
[6]
  GI50: 14200 nM
  TGI: 30.9 µM
[7]
  GI50: 13.7 µM
  TGI: 34.4 µM
[8]
  GI50: 2860 nM
  TGI: 11 µM
[9]
  GI50: 2870 nM
  TGI: 9.18 µM
[10]
  GI50: 10300 nM
  TGI: 33.3 µM

## Oc1[nH]c2ccccc2c1/C=c1/ccc2c(c1)N=C(c1ccc(C(F)(F)F)cc1)N=2
[1]
  GI50: 9890 nM
  TGI: 22.1 µM
[2]
  GI50: 1610 nM
  TGI: 11.3 µM
[3]
  GI50: 1820 nM
  TGI: 5.37 µM
[4]
  GI50: 1170 nM
  TGI: 5.69 µM
[5]
  GI50: 14.5 µM
  TGI: 30.5 µM
[6]
  GI50: 2130 nM
  TGI: 6.12 µM
[7]
  GI50: 10.1 µM
  TGI: 22 µM
[8]
  GI50: 2210 nM
  TGI: 4.32 µM
[9]
  GI50: 3110 nM
  TGI: 16.2 µM
[10]
  GI50: 2790 nM
  TGI: 12.9 µM

## c1ccc(Oc2ccc(Nc3ncc(-c4ccccc4)o3)cc2)cc1
[1]
  GI50: > 25000 nM
  TGI: > 25 µM
[2]
  GI50: > 25000 nM
  TGI: > 25 µM
[3]
  GI50: > 25000 nM
  TGI: > 25 µM
[4]
  GI50: > 25000 nM
  TGI: > 25 µM
[5]
  GI50: > 25 µM
  TGI: > 25 µM
[6]
  GI50: > 25000 nM
  TGI: > 25 µM
[7]
  GI50: > 25 µM
  TGI: > 25 µM
[8]
  GI50: > 25000 nM
  TGI: > 25 µM
[9]
  GI50: > 25000 nM
  TGI: > 25 µM
[10]
  GI50: > 25000 nM
  TGI: > 25 µM

## COc1ccccc1/C=C\C(=O)C1COCN1 (centres undefined)
[1]
  TGI: 33.2 µM
[2]
  TGI: 30.6 µM
[3]
  TGI: 38.1 µM
[4]
  TGI: 26.4 µM
[5]
  TGI: 39.7 µM
[6]
  TGI: > 100 µM
[7]
  TGI: 67.4 µM
[8]
  TGI: 81.8 µM
[9]
  TGI: 36.6 µM
[10]
  TGI: 41.3 µM

## C=C1C(=O)O[C@H]2[C@H]1CC/C(COC(=O)/C=C\C(=O)NCc1ccc(Cn3c(=O)sn(CCI)c3=O)cc1)=C\CC[C@@]1(C)O[C@@H]21
[1]
  GI50: 2060 nM
  TGI: 3.69 µM
[2]
  GI50: 2260 nM
  TGI: 4.92 µM
[3]
  GI50: 2180 nM
  TGI: 4.88 µM
[4]
  GI50: 3040 nM
  TGI: 8.68 µM
[5]
  GI50: 20.9 µM
  TGI: 49 µM
[6]
  GI50: 15500 nM
  TGI: 37.9 µM
[7]
  GI50: 3.56 µM
  TGI: 13.3 µM
[8]
  GI50: 1810 nM
  TGI: 3.69 µM
[9]
  GI50: 2230 nM
  TGI: 5.04 µM
[10]
  GI50: 4240 nM
  TGI: 18.5 µM

## O=C1NC2(CCCCC2)C(=O)N1CCN(CCCl)CCCl
[1]
  GI50: > 25000 nM
  TGI: > 250 µM
[2]
  GI50: > 25000 nM
  TGI: > 250 µM
[3]
  GI50: > 25000 nM
  TGI: > 250 µM
[4]
  TGI: > 25 µM
[5]
  GI50: > 25 µM
  TGI: > 250 µM
[6]
  GI50: 15700 nM
  TGI: 25 µM and 249 µM
[7]
  GI50: > 25 µM
  TGI: > 250 µM
[8]
  GI50: > 25000 nM and 99200 nM
  TGI: > 25 µM and 202 µM
[9]
  GI50: > 25000 nM
  TGI: > 114 µM
[10]
  GI50: > 25000 nM
  TGI: > 250 µM

## Cc1ccc(Cl)c(NS(=O)(=O)c2ccc(-c3cnc(C4CC4)o3)cc2)c1
[1]
  GI50: 154 nM
  TGI: 1.36 µM
[2]
  GI50: 51.7 nM
  TGI: 16.2 µM
[3]
  GI50: 226 nM
  TGI: 18.5 µM
[4]
  GI50: 38.2 nM
  TGI: 2.23 µM
[5]
  GI50: 1.03 µM
  TGI: 28.1 µM
[6]
  GI50: 102 nM
  TGI: 20.4 µM
[7]
  GI50: 0.439 µM
  TGI: > 100 µM
[8]
  GI50: 199 nM
  TGI: > 100 µM
[9]
  GI50: 2770 nM
  TGI: > 58.5 µM
[10]
  GI50: 23.2 nM
  TGI: 0.164 µM

## COc1ccccc1[As]=[As]c1ccccc1OC (centres undefined)
[1]
  GI50: 20.9 nM
  TGI: 0.0475 µM
[2]
  GI50: 40.5 nM
  TGI: 0.174 µM
[3]
  GI50: 38.4 nM
  TGI: 0.136 µM
[4]
  GI50: 51.1 nM
  TGI: 0.196 µM
[5]
  GI50: 0.0723 µM
  TGI: 0.21 µM
[6]
  GI50: 96 nM
  TGI: 0.334 µM
[7]
  GI50: 0.0627 µM
  TGI: 0.181 µM
[8]
  GI50: 25.7 nM
  TGI: 0.0644 µM
[9]
  GI50: 43.7 nM
  TGI: 0.153 µM
[10]
  GI50: 30.5 nM
  TGI: 0.13 µM
